The target in one test is T1, PARP-1 (Homo sapiens, UniProt P09874).
T1 construct: purchased Trevigen 4668-500-01
Kind of test: PARP-1 SPA assay. Type of test: biochemical. The protocol:
Assay buffer: 100 mM Tris pH 8, 4 mM MgCl2, 4 mM Spermine, 200 mM KCl, 0.04% Nonidet P-40.
Nicotinamide-adenine dinucleotide (NAD)/DNA Mix: [^3H-NAD] (250 uCi/ml, 0.4 ul, Perkin-Elmer NET-443H), NAD (1.5 mM, 0.05 ul, SIGMA N-1511), Biotinylated-NAD (250 uM, 0.03 ul, Trevigen 4670-500-01), Activated calf thymus (1 mg/ml, 0.05 ul, Amersham Biosciences 27-4575), H2O (to 10 ul).
Developing Mix: Streptavidin SPA beads (5 mg/ml, Amersham Biosciences RPNQ 0007) dissolved in 500 mM EDTA.
The reaction is performed in 96-well microplate with a final volume of 50 uL/well. Add 5 ul 5% DMSO/compound solution, add enzyme mix (35 ul), start the reaction by adding NAD/DNA mix (10 uL) and incubate for 2 hrs at RT. Stop the reaction by adding developing mix (25 ul) and incubate 15 min at RT. Measure using a Packard TOP COUNT instrument.

The subject of test [1] is BRCA-1 silenced HeLa cells (HeLa shBRCA1-GFP). Kind of test: Proliferation assay in BRCA-1 silenced HeLa cells. Type of test: cell-based. Conditions: Homo sapiens; BRCA1 silenced HeLa cells, 168 hours; read-out: CC50 in the BRCA1 silenced HeLa cells. The procedure, abridged: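 HeLa cells with lentiviral shRNA BRCA1 knockdown (>80%), compared with control-vector HeLa, seeded at 300 cells/well. Compound exposure lasted 168 h at 37° C. Viability was read as resazurin-to-resorufin fluorescence (ex 550/em 590 nm).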

Drawing on patent US8268827B2, “Pyridazinone derivatives as PARP inhibitors” (Istituto di Ricerche di Biologia Molecolare P. Angeletti …, priority 2007, dated 2012), this text covers IC50 and CC50 for 24 compounds.

Structures can show the parent of a compound that is named as a salt. Where only a bound is given, the exact number is not on record here.

T1 sequence (P09874 whole entry): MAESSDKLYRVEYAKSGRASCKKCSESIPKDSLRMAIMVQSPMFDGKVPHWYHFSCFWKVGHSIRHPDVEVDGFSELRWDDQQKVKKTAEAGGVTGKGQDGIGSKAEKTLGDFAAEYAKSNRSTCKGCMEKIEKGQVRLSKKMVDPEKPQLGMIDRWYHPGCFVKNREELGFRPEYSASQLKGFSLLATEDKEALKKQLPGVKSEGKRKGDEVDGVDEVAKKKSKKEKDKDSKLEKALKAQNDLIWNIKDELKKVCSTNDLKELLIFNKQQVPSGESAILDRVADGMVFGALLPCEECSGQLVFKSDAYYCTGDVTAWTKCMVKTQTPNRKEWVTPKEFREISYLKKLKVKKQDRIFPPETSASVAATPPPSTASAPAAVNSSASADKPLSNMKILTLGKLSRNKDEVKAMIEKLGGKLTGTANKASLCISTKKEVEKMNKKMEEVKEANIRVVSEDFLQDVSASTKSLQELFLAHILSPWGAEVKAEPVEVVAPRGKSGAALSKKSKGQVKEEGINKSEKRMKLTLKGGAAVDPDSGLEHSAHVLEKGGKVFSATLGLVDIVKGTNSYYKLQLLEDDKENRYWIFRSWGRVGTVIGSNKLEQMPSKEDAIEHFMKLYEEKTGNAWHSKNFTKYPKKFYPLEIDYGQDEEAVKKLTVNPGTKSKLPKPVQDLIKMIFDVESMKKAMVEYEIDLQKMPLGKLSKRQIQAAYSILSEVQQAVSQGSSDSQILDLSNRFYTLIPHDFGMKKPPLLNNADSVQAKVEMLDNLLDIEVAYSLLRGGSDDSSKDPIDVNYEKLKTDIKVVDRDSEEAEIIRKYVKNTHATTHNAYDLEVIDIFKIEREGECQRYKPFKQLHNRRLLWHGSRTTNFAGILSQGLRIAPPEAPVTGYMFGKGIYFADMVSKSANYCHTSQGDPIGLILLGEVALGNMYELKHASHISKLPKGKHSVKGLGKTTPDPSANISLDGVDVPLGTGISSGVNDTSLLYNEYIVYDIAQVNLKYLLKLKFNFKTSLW

Take `CCc1cc(Cc2ccc(F)c(C(=O)N3CCN(C4CCc5ccccc5C4)C(=O)C3)c2)n[nH]c1=O` (stereo not drawn) [Example 148, 4-Ethyl-6-(4-fluoro-3-{[3-oxo-4-(1,2,3,4-tetrahydronaphthalen-2-yl)piperazin-1-yl]carbonyl}benzyl)pyridazin-3(2H)-one]: the half-maximal inhibitory concentration (IC50) (as a rule, the midpoint of a concentration-inhibition curve) at PARP-1 was below 0.005 µM. In test [1], the CC50 (commonly the concentration giving 50% cytotoxicity) was in the range of 0.05 to 0.5 µM.

As for `O=C(c1cc(Cc2cc(C(F)(F)F)c(=O)[nH]n2)ccc1F)N1CC(=O)N2CCCCC2C1` (racemic) [Example 91, 2-(2-Fluoro-5-{[6-oxo-5-(trifluoromethyl)-1,6-dihydropyridazin-3-yl]methyl}benzoyl)octahydro-4H-pyrido[1,2-a]pyrazin-4-one], the 50% inhibitory concentration (IC50) against PARP-1 was in the range of 0.005 to 0.025 µM. Besides, the CC50 in test [1] lay in the range of 0.05 to 0.5 µM. Taken in the same sequence, the figures for `C[C@@H]1CN(C(=O)c2cc(Cc3cc(C(F)(F)F)c(=O)[nH]n3)ccc2F)CC(=O)N1C1CCCC1` [Example 151, 6-(3-{[(3R)-4-cyclopentyl-3-methyl-5-oxopiperazin-1-yl]carbonyl}-4-fluorobenzyl)-4-(trifluoromethyl)pyridazin-3(2H)-one] were 0.005 to 0.025 µM and below 0.05 µM. The compound `COc1ccc(CN2C(=O)CN(C(=O)c3cc(Cc4n[nH]c(=O)c(C)c4C)ccc3F)CC2C)cc1` (stereo not drawn) [Example 138, 6-(4-fluoro-3-{[4-(4-methoxybenzyl)-3-methyl-5-oxopiperazin-1-yl]carbonyl}benzyl)-4,5-dimethyl-3-oxo-2,3-dihydropyridazin-1-ium trifluoroacetate] registered a half-inhibitory concentration (IC50) at PARP-1 of 0.005 to 0.025 µM. The CC50 in test [1] fell in the range of 0.05 to 0.5 µM. For the compound `CCc1cc(Cc2ccc(F)c(C(=O)N3CCN([C@H]4CCCOC4)C(=O)C3)c2)n[nH]c1=O` [Example 144, 4-ethyl-6-[4-fluoro-3-({3-oxo-4-[(3S)-tetrahydro-2H-pyran-3-yl]piperazin-1-yl}carbonyl)benzyl]pyridazin-3(2H)-one], at PARP-1, the IC50 was below 0.005 µM. For the same compound, the half-maximal cytotoxic concentration (CC50) in test [1] was below 5 µM. On PARP-1, `C[C@@H]1CCC[C@H]2CN(C(=O)c3cc(Cc4cc(C(F)(F)F)c(=O)[nH]n4)ccc3F)CC(=O)N21` (racemic) [Example 87, 6-{4-Fluoro-3-[(cis-6-methyl-4-oxooctahydro-2H-pyrido[1,2-a]pyrazin-2-yl)carbonyl]benzyl}-3-oxo-4-(trifluoromethyl)-2,3-dihydropyridazin-1-ium trifluoroacetate] returned an IC50 of 0.005 to 0.025 µM. The CC50 in test [1] is below 0.05 µM.

In the case of `Cc1c(Cc2ccc(F)c(C(=O)N3CCN([C@H]4CCOC4)C(=O)C3)c2)n[nH]c(=O)c1C` [Example 113, 6-[4-Fluoro-3-({3-oxo-4-[(3S)-tetrahydrofuran-3-yl]piperazin-1-yl}carbonyl)benzyl]-4,5-dimethylpyridazin-3(2H)-one], on PARP-1, the half-inhibitory concentration (IC50) lay in the range of 0.005 to 0.025 µM. For the same compound, in test [1], the CC50 is 0.05 to 0.5 µM. Regarding `C[C@H]1CN(C(=O)c2cc(Cc3cc(C(F)(F)F)c(=O)[nH]n3)ccc2F)CC(=O)N1C1CCCC1` [Example 152, 6-(3-{[(3S)-4-cyclopentyl-3-methyl-5-oxopiperazin-1-yl]carbonyl}-4-fluorobenzyl)-4-(trifluoromethyl)pyridazin-3(2H)-one], the half-inhibitory concentration (IC50) at PARP-1 was 0.005 to 0.025 µM. The CC50 in test [1] is below 5 µM.

In turn, `Cc1c(Cc2ccc(F)c(C(=O)N3CCN(c4cnc5ccccc5c4)C(=O)C3)c2)n[nH]c(=O)c1C` [Example 60, 6-{4-Fluoro-3-[(3-oxo-4-quinolin-3-ylpiperazin-1-yl)carbonyl]benzyl}-4,5-dimethylpyridazin-3(2H)-one] showed an IC50 on PARP-1 below 0.005 µM. For the same compound, the CC50 in test [1] is below 0.05 µM. In the case of `O=C(c1cc(Cc2cc(C(F)(F)F)c(=O)[nH]n2)ccc1F)N1CC(=O)N2CCCC[C@@H]2C1` (single isomer, unassigned) [92 (ZZ2)], the concentration for half-maximal inhibition (IC50) against PARP-1 fell in the range of 0.005 to 0.025 µM. Also, the half-maximal cytotoxic concentration (CC50) in test [1] lay within 0.05 to 0.5 µM.

Take `Cc1c(Cc2ccc(F)c(C(=O)N3CCN(C4CCC(F)(F)CC4)C(=O)C3)c2)n[nH]c(=O)c1C` [Example 48, 6-(3-{[4-(4,4-Difluorocyclohexyl)-3-oxopiperazin-1-yl]carbonyl}-4-fluorobenzyl)-4,5-dimethyl-3-oxo-2,3-dihydropyridazin-1-ium trifluoroacetate]: the 50% inhibitory concentration (IC50) against PARP-1 was in the range of 0.005 to 0.025 µM. Further, the CC50 in test [1] fell in the range of 0.05 to 0.5 µM. For the compound `Cc1c(Cc2ccc(F)c(C(=O)N3CC(=O)N(c4ccccc4)C(C)(C)C3)c2)n[nH]c(=O)c1C` [Example 77, 6-{3-[(3,3-Dimethyl-5-oxo-4-phenylpiperazin-1-yl)carbonyl]-4-fluorobenzyl}-4,5-dimethylpyridazin-3(2H)-one], the 50% inhibitory concentration (IC50) at PARP-1 was below 0.005 µM. Further, the CC50 in test [1] is below 0.05 µM.

Consider `Cc1c(Cc2ccc(F)c(C(=O)N3CCN(C4CCCCCC4)C(=O)C3)c2)n[nH]c(=O)c1C` [Example 73, 6-{3-[(4-Cycloheptyl-3-oxopiperazin-1-yl)carbonyl]-4-fluorobenzyl}-4,5-dimethyl-3-oxo-2,3-dihydropyridazin-1-ium trifluoroacetate], for which, on PARP-1, the IC50 is below 0.005 µM. In addition, the 50% cytotoxic concentration (CC50) in test [1] was below 0.05 µM. Consider `Cc1c(Cc2ccc(F)c(C(=O)N3CCN(c4ccc(S(C)(=O)=O)cc4)C(=O)C3)c2)n[nH]c(=O)c1C` [Example 95, 3-[4-Fluoro-3-({4-[4-(methylsulfonyl)phenyl]-3-oxopiperazin-1-yl}carbonyl)benzyl]-4,5-dimethyl-6-oxo-1,6-dihydropyridazin-1-ium trifluoroacetate], for which the IC50 against PARP-1 is below 0.005 µM. Also, in test [1], the CC50 was in the range of 0.05 to 0.5 µM. Turning to `O=C(c1cc(Cc2cc(C(F)(F)F)c(=O)[nH]n2)ccc1F)N1CCN(C2CCCC2)C(=O)C1` [Example 33, 6-{3-[(4-Cyclopentyl-3-oxopiperazin-1-yl)carbonyl]-4-fluorobenzyl}-3-oxo-4-(trifluoromethyl)-2,3-dihydropyridazin-1-ium trifluoroacetate], the IC50 on PARP-1 is below 0.005 µM. In addition, the CC50 in test [1] was in the range of 0.05 to 0.5 µM.

In the case of `Cc1c(Cc2ccc(F)c(C(=O)N3CCN(C4CCCC(C)(C)C4)C(=O)C3)c2)n[nH]c(=O)c1C` (stereo not drawn) [Example 51, 6-(3-{[4-(3,3-Dimethylcyclohexyl)-3-oxopiperazin-1-yl]carbonyl}-4-fluorobenzyl)-4,5-dimethyl-3-oxo-2,3-dihydropyridazin-1-ium trifluoroacetate], the IC50 against PARP-1 was in the range of 0.005 to 0.025 µM. In addition, the CC50 in test [1] is 0.05 to 0.5 µM.

Compound `Cc1c(Cc2ccc(F)c(C(=O)N3CCN(c4ccc(F)cc4)C(=O)C3)c2)n[nH]c(=O)c1C` [Example 40, 6-(4-Fluoro-3-{[4-(4-fluorophenyl)-3-oxopiperazin-1-yl]carbonyl}benzyl)-4,5-dimethyl-3-oxo-2,3-dihydropyridazin-1-ium trifluoroacetate] yielded an IC50 at PARP-1 of 0.005 to 0.025 µM. In addition, the CC50 in test [1] is 0.05 to 0.5 µM. As for `Cc1c(Cc2ccc(F)c(C(=O)N3CCN([C@H]4CC[C@@H](F)C4)C(=O)C3)c2)n[nH]c(=O)c1C` (relative stereo) [Example 80, cis-3-{4-Fluoro-3-[4-(3-fluoro-cyclopentyl)-3-oxo-piperazine-1-carbonyl]-benzyl}-4,5-dimethyl-6-oxo-1,6-dihydro-pyridazin-1-ium trifluoroacetate], at PARP-1, the IC50 was below 0.005 µM. Moreover, the cytotoxic concentration (CC50) in test [1] lay in the range of 0.05 to 0.5 µM. On to `Cc1c(Cc2ccc(F)c(C(=O)N3CC(=O)N(C4CCCCC4)CC3(C)C)c2)n[nH]c(=O)c1C` [Example 93, 3-{3-[(4-Cyclohexyl-2,2-dimethyl-5-oxopiperazin-1-yl)carbonyl]-4-fluorobenzyl}-4,5-dimethyl-6-oxo-1,6-dihydropyridazin-1-ium trifluoroacetate], for which the concentration for half-maximal inhibition (IC50) at PARP-1 fell in the range of 0.025 to 0.15 µM. On the same count and under the same terms, then `COC(=O)CN1CCN(C(=O)c2cc(Cc3n[nH]c(=O)c(C)c3C)ccc2F)CC1=O` [Example 24, Methyl (4-{5-[(4,5-dimethyl-6-oxo-1,6-dihydropyridazin-3-yl)methyl]-2-fluorobenzoyl}-2-oxopiperazin-1-yl)acetate trifluoroacetate], with 0.005 to 0.025 µM. At PARP-1, `Cc1c(Cc2ccc(F)c(C(=O)N3CCCN(C4CCCCC4)C(=O)C3)c2)n[nH]c(=O)c1C` [Example 34, 6-{3-[(4-Cyclohexyl-3-oxo-1,4-diazepan-1-yl)carbonyl]-4-fluorobenzyl}-4,5-dimethyl-3-oxo-2,3-dihydropyridazin-1-ium trifluoroacetate] yielded an IC50 of 0.005 to 0.025 µM. `Cc1c(Cc2ccc(F)c(C(=O)N3C[C@@H]4C[C@H]3C(=O)N4c3ccccc3)c2)n[nH]c(=O)c1C` [Example 41, (1S,4S)-5-{5-[(4,5-Dimethyl-6-oxo-1,6-dihydropyridazin-3-yl)methyl]-2-fluorobenzoyl}-2-phenyl-2,5-diazabicyclo[2.2.1]heptan-3-one trifluoroacetate]: the IC50 at PARP-1 was in the range of 0.025 to 0.15 µM. At PARP-1, `Cc1c(Cc2ccc(F)c(C(=O)N3CCN(CCF)C(=O)C3)c2)n[nH]c(=O)c1C` [Example 58, 6-(4-Fluoro-3-{[4-(2-fluoroethyl)-3-oxopiperazin-1-yl]carbonyl}benzyl)-4,5-dimethyl-3-oxo-2,3-dihydropyridazin-1-ium trifluoroacetate] registered a concentration for half-maximal inhibition (IC50) of 0.005 to 0.025 µM. The compound `Cc1c(Cc2ccc(F)c(C(=O)N3CCN([C@H]4CC[C@H](F)C4)C(=O)C3)c2)n[nH]c(=O)c1C` (relative stereo) [Example 212, 6-[4-Fluoro-3-({4-[(trans)-3-fluorocyclopentyl]-3-oxopiperazin-1-yl}carbonyl)benzyl]-4,5-dimethylpyridazin-3(2H)-one] had a concentration for half-maximal inhibition (IC50) against PARP-1 of 0.005 to 0.025 µM.
